#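 The concentration for 50% growth inhibition is given as GI50. TGI: concentration producing complete growth inhibition.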
# Key:
# Assay in all cases: inhibition of tumour cell growth, NCI panel, 384-well format
# 786-0 renal = tested on: 786-0 renal
# A498 renal = tested on: A498 renal
# A549 NSCLC = tested on: A549 NSCLC
# BT-549 breast = tested on: BT-549 breast
# CCRF-CEM leukemia = tested on: CCRF-CEM leukemia
# COLO 205 colon = tested on: COLO 205 colon
# DU-145 prostate = tested on: DU-145 prostate
# EKVX NSCLC = tested on: EKVX NSCLC
# HCC-2998 colon = tested on: HCC-2998 colon
# HCT-116 colon = tested on: HCT-116 colon
# HL-60(TB) leukemia = tested on: HL-60(TB) leukemia
# HOP-62 NSCLC = tested on: HOP-62 NSCLC
# HS 578T breast = tested on: HS 578T breast
# HT29 colon = tested on: HT29 colon
# IGROV1 ovarian = tested on: IGROV1 ovarian
# K-562 leukemia = tested on: K-562 leukemia
# M14 melanoma = tested on: M14 melanoma
# MCF7 breast = tested on: MCF7 breast
# MDA-MB-231 breast = tested on: MDA-MB-231 breast
# MDA-MB-435 melanoma = tested on: MDA-MB-435 melanoma
# MDA-MB-468 breast = tested on: MDA-MB-468 breast
# MOLT-4 leukemia = tested on: MOLT-4 leukemia
# NCI-H226 lung = tested on: NCI-H226 lung
# NCI-H23 lung = tested on: NCI-H23 lung
# NCI-H322M lung = tested on: NCI-H322M lung
# NCI-H522 lung = tested on: NCI-H522 lung
# OVCAR-3 ovarian = tested on: OVCAR-3 ovarian
# OVCAR-4 ovarian = tested on: OVCAR-4 ovarian
# OVCAR-5 ovarian = tested on: OVCAR-5 ovarian
# OVCAR-8 ovarian = tested on: OVCAR-8 ovarian
# PC-3 prostate = tested on: PC-3 prostate
# RPMI-8226 leukemia = tested on: RPMI-8226 leukemia
# RXF 393 renal = tested on: RXF 393 renal
# SK-MEL-2 melanoma = tested on: SK-MEL-2 melanoma
# SK-MEL-28 melanoma = tested on: SK-MEL-28 melanoma
# SK-MEL-5 melanoma = tested on: SK-MEL-5 melanoma
# SK-OV-3 ovarian = tested on: SK-OV-3 ovarian
# SN12C renal = tested on: SN12C renal
# SNB-19 CNS = tested on: SNB-19 CNS
# SNB-75 CNS = tested on: SNB-75 CNS
# SR leukemia = tested on: SR leukemia
# T-47D breast = tested on: T-47D breast
# TK-10 renal = tested on: TK-10 renal
# U251 glioblastoma = tested on: U251 glioblastoma
# UACC-257 melanoma = tested on: UACC-257 melanoma
# UACC-62 melanoma = tested on: UACC-62 melanoma
# UO-31 renal = tested on: UO-31 renal
smiles,measurement,setting,value
CNCc1ccc(C)c(NC(=O)c2ccc(Nc3nc(-c4ccccc4)c4ccccc4n3)cc2)c1,GI50,786-0 renal,1500 nM
same,TGI,786-0 renal,2840 nM
same,GI50,A498 renal,1630 nM
same,TGI,A498 renal,3000 nM
same,GI50,A549 NSCLC,1800 nM
same,TGI,A549 NSCLC,3240 nM
same,GI50,BT-549 breast,1700 nM
same,TGI,BT-549 breast,3090 nM
same,GI50,CCRF-CEM leukemia,1580 nM
same,TGI,CCRF-CEM leukemia,2940 nM
same,GI50,COLO 205 colon,1600 nM
same,TGI,COLO 205 colon,2960 nM
same,GI50,DU-145 prostate,1930 nM
same,TGI,DU-145 prostate,3480 nM
same,GI50,EKVX NSCLC,1570 nM
same,TGI,EKVX NSCLC,2950 nM
same,GI50,HCC-2998 colon,1280 nM
same,TGI,HCC-2998 colon,2550 nM
same,GI50,HCT-116 colon,1730 nM
same,TGI,HCT-116 colon,3160 nM
same,GI50,HL-60(TB) leukemia,1040 nM
same,TGI,HL-60(TB) leukemia,2400 nM
same,GI50,HOP-62 NSCLC,1910 nM
same,TGI,HOP-62 NSCLC,3330 nM
same,GI50,HS 578T breast,1930 nM
same,TGI,HS 578T breast,3340 nM
same,GI50,HT29 colon,1410 nM
same,TGI,HT29 colon,2740 nM
same,GI50,IGROV1 ovarian,1810 nM
same,TGI,IGROV1 ovarian,3600 nM
same,GI50,K-562 leukemia,1400 nM
same,TGI,K-562 leukemia,2740 nM
same,GI50,M14 melanoma,2030 nM
same,TGI,M14 melanoma,3470 nM
same,GI50,MCF7 breast,1480 nM
same,TGI,MCF7 breast,2850 nM
same,GI50,MDA-MB-231 breast,1840 nM
same,TGI,MDA-MB-231 breast,3250 nM
same,GI50,MDA-MB-435 melanoma,1910 nM
same,TGI,MDA-MB-435 melanoma,3340 nM
same,GI50,MDA-MB-468 breast,1710 nM
same,TGI,MDA-MB-468 breast,3090 nM
same,GI50,MOLT-4 leukemia,1510 nM
same,TGI,MOLT-4 leukemia,2850 nM
same,GI50,NCI-H226 lung,1880 nM
same,TGI,NCI-H226 lung,3360 nM
same,GI50,NCI-H23 lung,1830 nM
same,TGI,NCI-H23 lung,3270 nM
same,GI50,NCI-H322M lung,1740 nM
same,TGI,NCI-H322M lung,3140 nM
same,GI50,NCI-H522 lung,1840 nM
same,TGI,NCI-H522 lung,3250 nM
same,GI50,OVCAR-3 ovarian,1780 nM
same,TGI,OVCAR-3 ovarian,3200 nM
same,GI50,OVCAR-4 ovarian,1860 nM
same,TGI,OVCAR-4 ovarian,3400 nM
same,GI50,OVCAR-5 ovarian,2040 nM
same,TGI,OVCAR-5 ovarian,3990 nM
same,GI50,OVCAR-8 ovarian,1640 nM
same,TGI,OVCAR-8 ovarian,3020 nM
same,GI50,PC-3 prostate,1690 nM
same,TGI,PC-3 prostate,3160 nM
same,GI50,RPMI-8226 leukemia,1720 nM
same,TGI,RPMI-8226 leukemia,3100 nM
same,GI50,RXF 393 renal,1460 nM
same,TGI,RXF 393 renal,2790 nM
same,GI50,SK-MEL-2 melanoma,1810 nM
same,TGI,SK-MEL-2 melanoma,3210 nM
same,GI50,SK-MEL-28 melanoma,1690 nM
same,TGI,SK-MEL-28 melanoma,3060 nM
same,GI50,SK-MEL-5 melanoma,1390 nM
same,TGI,SK-MEL-5 melanoma,2690 nM
same,GI50,SK-OV-3 ovarian,1780 nM
same,TGI,SK-OV-3 ovarian,3180 nM
same,GI50,SN12C renal,1590 nM
same,TGI,SN12C renal,2960 nM
same,GI50,SNB-19 CNS,1860 nM
same,TGI,SNB-19 CNS,3310 nM
same,GI50,SNB-75 CNS,1850 nM
same,TGI,SNB-75 CNS,3300 nM
same,GI50,SR leukemia,342 nM
same,TGI,SR leukemia,799 nM
same,GI50,T-47D breast,1450 nM
same,TGI,T-47D breast,2780 nM
same,GI50,TK-10 renal,1810 nM
same,TGI,TK-10 renal,3290 nM
same,GI50,U251 glioblastoma,1730 nM
same,TGI,U251 glioblastoma,3130 nM
same,GI50,UACC-257 melanoma,654 nM
same,TGI,UACC-257 melanoma,1600 nM
same,GI50,UACC-62 melanoma,1610 nM
same,TGI,UACC-62 melanoma,2970 nM
same,GI50,UO-31 renal,1970 nM
same,TGI,UO-31 renal,3400 nM

# — PubChem BioAssay (NCI)
